Values of other authors, collected in US4738979A, “α2 -blocking derivatives of imidazole” (G. D. Searle & Co., priority 1985, dated 1988).

Test system: α2 -adrenergic receptors
Settings: cited from earlier work

SMILES | selectivity (in words) | side-effects (in words)
COC(=O)[C@@H]1[C@H]2C[C@H]3c4[nH]c5ccccc5c4CCN3C[C@@H]2CC[C@@H]1O [yohimbine] | lack selectivity | numerous side-effects
COC(=O)[C@H]1[C@H]2C[C@H]3c4[nH]c5ccccc5c4CCN3C[C@H]2CC[C@@H]1O [rauwolscine] | lack selectivity | numerous side-effects
